Test results published in PubChem BioAssay (NCI).
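Results reflect a 48-hour exposure of cells in 96-well plates to compound at five concentrations. The concentration for 50% growth inhibition is given as GI50. TGI marks complete inhibition of growth.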

Columns and labels:
Assay in all cases: NCI tumour cell line growth inhibition, 48 h
ACHN renal = system: ACHN renal
HOP-62 NSCLC = system: HOP-62 NSCLC
A498 renal = system: A498 renal
SR leukemia = system: SR leukemia
NCI-H23 lung = system: NCI-H23 lung
UO-31 renal = system: UO-31 renal
IGROV1 ovarian = system: IGROV1 ovarian
U251 CNS = system: U251 CNS
MALME-3M melanoma = system: MALME-3M melanoma
OVCAR-8 ovarian = system: OVCAR-8 ovarian

SMILES	TGI (ACHN renal) [µM]	TGI (HOP-62 NSCLC) [µM]	TGI (A498 renal) [µM]	TGI (SR leukemia) [µM]	TGI (NCI-H23 lung) [µM]	TGI (UO-31 renal) [µM]	TGI (IGROV1 ovarian) [µM]	TGI (U251 CNS) [µM]	TGI (MALME-3M melanoma) [µM]	TGI (OVCAR-8 ovarian) [µM]	GI50 (ACHN renal) [µM]	GI50 (HOP-62 NSCLC) [µM]	GI50 (A498 renal) [µM]	GI50 (NCI-H23 lung) [µM]	GI50 (UO-31 renal) [µM]	GI50 (IGROV1 ovarian) [µM]	GI50 (U251 CNS) [µM]	GI50 (MALME-3M melanoma) [µM]	GI50 (OVCAR-8 ovarian) [µM]	GI50 (SR leukemia) [µM]
Nn1c(=O)n(Cc2ccccc2)n(-c2ccccc2)c1=O	> 100	> 100	> 100	> 100	> 100	> 100	> 100	> 100	> 100	> 100	–	–	–	–	–	–	–	–	–	–
Cc1ccc(C(=O)CN(/C=C/C(=O)C(F)(F)F)c2ccc(S(N)(=O)=O)cc2)cc1	> 100	> 100	> 100	–	> 100	> 100	> 100	> 100	> 100	> 100	> 100	> 100	> 100	37.2	> 100	> 100	48.4	> 100	61.2	–
Oc1cccnc1CN1CCCCC1	> 100	> 100	> 100	> 100	> 100	> 100	> 100	> 100	> 100	> 100	–	–	–	–	–	–	–	–	–	–
CN1C/C=C\CCOc2cccc(c2)-c2ccnc(n2)Nc2cccc(c2)C1	1.49	0.402	0.156	0.116	0.599	0.46	1.31	0.678	0.454	0.887	0.0332	0.0482	0.0572	0.0717	0.0324	0.0487	0.0374	0.107	0.0385	0.0196
COc1cc(/C=C/c2cc(/C=C/c3ccc(O)c(OC)c3)n(C(=O)Nc3ccc(F)c(Cl)c3)n2)ccc1O	7.49	1.59	2.1	–	1.46	1.82	3.59	–	2.48	3.09	0.141	0.409	0.783	0.147	0.248	0.47	–	1.05	0.496	0.0415
COc1ccc(-c2n[nH]nc2-c2cc(OC)c(OC)c(OC)c2)cc1	> 100	> 73.2	< 0.0277	> 47.9	36.4	28	9.23	–	–	22	0.0169	< 0.01	< 0.01	< 0.01	0.207	< 0.01	< 0.01	–	< 0.01	< 0.01
COc1cc2c3c(n(CCCNC(=O)OCC4c5ccccc5-c5ccccc54)c(=O)c2cc1OC)-c1cc2c(cc1/C3=C\CCNC(=O)OCC1c3ccccc3-c3ccccc31)OCO2	> 35	> 24.3	–	21	9.54	> 50	4.93	> 36.7	> 50	> 50	> 11.8	–	–	0.921	> 50	0.915	> 17.8	45.5	> 35.3	3.29
O=C(Cc1ccccc1)NN1C(=O)C(Cl)C1c1cc(Br)ccc1O (stereo not given)	> 100	52.9	–	> 100	53.3	46.8	> 100	32.6	> 100	69.2	–	–	–	–	–	–	–	–	–	–
C[C@@]12CC=C3c4nc(Nc5cccc(O)c5)sc4CC[C@]3(C)[C@H]1CC[C@]1(C)C(=O)CC[C@@H]21	5.45	8.12	75.8	> 100	12.3	–	6.04	16.9	–	26	2.27	2.75	18	2.74	–	2.23	2.24	–	3.55	1.87
CC(C)(C)c1cc(C(C)(C)C)cc(S(=O)(=O)Nc2cc3ccccc3cc2C(=O)NCCN)c1	3.18	3.01	3.3	4.43	3.53	2.98	–	3.15	3.13	4.87	1.7	1.57	1.77	1.76	1.55	–	1.75	1.54	2.2	1.9
C1=CC2SSSC2C1 (stereo not given)	> 100	> 100	–	> 100	> 100	> 100	> 100	> 100	> 100	> 100	–	–	–	–	–	–	–	–	–	–
COC(=O)/C(=N\Nc1nnc(C)n1N)C(C#N)c1ccc(Cl)cc1 (stereo not given)	> 100	> 100	> 100	–	> 100	> 100	> 100	> 100	> 100	> 100	–	–	–	–	–	–	–	–	–	–
NCC1Nc2ccccc2[C@@H](O)C1O (stereo not given in full)	> 100	> 100	–	> 100	> 100	> 100	> 100	> 100	> 100	> 100	–	–	–	–	–	–	–	–	–	–
O=C1CCN2C(=O)CCN12	> 100	> 100	> 100	> 100	> 100	> 100	–	> 100	> 100	> 100	–	–	–	–	–	–	–	–	–	–
O=S(=O)(N=S(c1ccccc1)c1ccccc1)c1ccccc1	> 100	> 100	> 100	> 100	> 100	> 100	–	> 100	> 100	> 100	–	–	–	–	–	–	–	–	–	–
N=C1C(c2nc3ccccc3s2)=C(O)CN1c1cc(C(F)(F)F)ccc1Cl	> 100	> 100	97.9	4.91	> 100	6.18	> 100	> 100	–	> 100	21.2	18.4	24.6	26.3	2.63	9.64	9.55	–	32.9	1.81
